The values that follow come from patent publication US20060293315A1, “Intermediates of novel heterocyclic compounds having antibacterial activity and process for their preparation” (Dr. Reddy's Laboratories Ltd., priority 2001, published 2006).

For orientation: melting point means the temperature, or range, at which the solid turns liquid.

Compound `CC(=O)NC[C@H]1CN(c2ccc(N3CCSC3=S)c(F)c2)C(=O)O1` [Example 76] returned a melting point of 220 °C.
With `CCOC(=S)NC[C@H]1CN(c2ccc(N3CCOC3=O)c(F)c2)C(=O)O1` [Example 120], the melting point turned out to be 208 °C.
`COC(=O)NC[C@H]1CN(c2ccc(N3CCOC3=O)cc2)C(=O)O1` [Example 112] showed a melting point of 195 °C.
The compound `COC(=S)NC[C@H]1CN(c2ccc(N3CC(=O)N(Cc4ccccc4)C3)c(F)c2)C(=O)O1` [Example 179] registered a melting point of 176 °C.
Take `CC(=O)NC[C@H]1CN(c2ccc(N3CCN(C)C3=O)cc2)C(=O)O1` [Example 93]: the melting point amounted to 217 °C.
For `CC(=O)NC[C@H]1CN(c2ccc(N3CCN(c4ccc(F)cc4)C3=O)c(F)c2)C(=O)O1` [Example 96] the value was 194 °C; for `COC(=S)NC[C@H]1CN(c2ccc(N3CCOC3=O)c(F)c2)C(=O)O1` [Example 123], 197 °C; for `CCOC(=S)NC[C@H]1CN(c2ccc(N3CCOC3=O)c(C(F)(F)F)c2)C(=O)O1` [Example 129], 157 °C.
For `CCOC(=S)NC[C@H]1CN(c2ccc(N3CC(=O)N(Cc4ccccc4)C3)c(F)c2)C(=O)O1` [Example 180] the value was 184 °C.
For `COC(=O)NC[C@H]1CN(c2ccc(N3CCOC3=O)c(F)c2)C(=O)O1` [Example 109] the value was 153 °C.
In turn, `CC(=S)NC[C@H]1CN(c2cc(F)c(N3CNC(=O)C3)c(F)c2)C(=O)O1` [Example 108] yielded a melting point of 148 to 150 °C.
For `COC(=S)NC[C@H]1CN(c2ccc(N3CC(=O)N(CO)C3)c(F)c2)C(=O)O1` [Example 155] the value was 184 °C.
For `CCCOC(=S)NC[C@H]1CN(c2ccc(N3CCN(C)C3=S)c(F)c2)C(=O)O1` [Example 125] the value was over 200 °C; for `COC(=S)NC[C@H]1CN(c2ccc(N3CCN(Cc4ccccc4)C3=O)cc2)C(=O)O1` [Example 145], 170 °C.
For `CC(=O)NC[C@H]1CN(c2ccc(N3CCN(Cc4ccccc4)C3=O)cc2)C(=O)O1` [Example 94] the value was 204 °C; for `COC(=S)NC[C@H]1CN(c2ccc(N3CNC(=O)C3)cc2)C(=O)O1` [Example 158], 205 to 210 °C; for `COC(=S)NC[C@H]1CN(c2ccc(N3CC(=O)N(C)C3)c(F)c2)C(=O)O1` [Example 141], 218 °C.
Compound `CSC(=S)NC[C@H]1CN(c2cc(F)c(N3CCOC3=O)c(F)c2)C(=O)O1` [Example 115] showed a melting point of 147 °C.
As for `CCC(=O)NC[C@H]1CN(c2ccc(N3CCOC3=O)c(F)c2)C(=O)O1` [Example 67], the melting point stood at 203 °C.
For `NC[C@H]1CN(c2ccc(N3CCOC3=O)cc2)C(=O)O1` [Example 59] the value was 189 to 191 °C.
As to `COCN1CN(c2ccc(N3C[C@H](CNC(=S)OC)OC3=O)cc2F)CC1=O` [Example 178], the melting point is 160 °C.
For `CC(=S)NC[C@H]1CN(c2ccc(-n3c(=O)oc4ccccc43)c(F)c2)C(=O)O1` [Example 101] the value was 137 °C; for `CC(=S)NC[C@H]1CN(c2ccc(N3CCOC3=O)cc2)C(=O)O1` [Example 105], 195 °C; for `O=C1O[C@@H](CNC(=S)OC(=O)C(F)(F)F)CN1c1ccc(N2CCOC2=O)c(F)c1` [Example 121], 184 °C.
As for `CCOC(=S)NC[C@H]1CN(c2ccc(N3CCOC3=O)cc2)C(=O)O1` [Example 132], the melting point is 168 °C.
For `CC(=O)NC[C@H]1CN(c2ccc(N3CCOC3=O)c(C(F)(F)F)c2)C(=O)O1` [Example 81] the value was 143 °C; for `C=CC(=O)NC[C@H]1CN(c2ccc(N3CCOC3=O)c(F)c2)C(=O)O1` [Example 71], 196 °C; for `CC(=S)NC[C@H]1CN(c2ccc(N3CCN(c4ccccc4)C3=O)c(F)c2)C(=O)O1` [Example 106], 165 °C.
Consider `COC(=S)NC[C@H]1CN(c2ccc(N3CC(=O)N(C)C3)cc2)C(=O)O1` [Example 143], for which the melting point was found to be 205 °C.
For `NC[C@H]1CN(c2ccc(N3CCOC3=O)c(F)c2)C(=O)O1` [Example 53] the value was 147 °C; for `CC(=O)NC[C@H]1CN(c2ccc(N3CCN(C)C3=S)c(F)c2)C(=O)O1` [Example 77], 171 °C; for `CC(C)OC(=S)NC[C@H]1CN(c2ccc(N3CCOC3=O)cc2)C(=O)O1` [Example 138], 140 °C.
For `CC(=S)NC[C@H]1CN(c2ccc(N3CCN(C)C3=S)c(F)c2)C(=O)O1` [Example 100] the value was 111 °C; for `COC(=S)NC[C@H]1CN(c2cc(F)c(N3CCOC3=O)c(F)c2)C(=O)O1` [Example 130], 182 °C; for `CCOC(=S)NC[C@H]1CN(c2ccc(N3CCN(c4ccc(F)cc4)C3=O)c(F)c2)C(=O)O1` [Example 150], 215 °C.
On to `COC(=S)NC[C@H]1CN(c2ccc(N3CC(=S)N(C)C3)c(F)c2)C(=O)O1` [Example 177], for which the melting point amounted to 195 °C.
Compound `CCC(=S)NC[C@H]1CN(c2cc(F)c(N3CCOC3=O)c(F)c2)C(=O)O1` [Example 104] registered a melting point of 168 °C.
As to `COC(=S)NC[C@H]1CN(c2ccc(N3CCN(c4ccc(F)cc4)C3=O)c(F)c2)C(=O)O1` [Example 149], the melting point worked out at 208 °C.
`CCOC(=S)NC[C@H]1CN(c2ccc(N3CCN(c4ccccc4)C3=O)c(F)c2)C(=O)O1` [Example 148] gave a melting point of 195 °C.
For `CC(=S)NC[C@H]1CN(c2ccc(N3CCOC3=O)c(F)c2)C(=O)O1` [Example 98] the value was 171 °C; for `CNC(=S)NC[C@H]1CN(c2ccc(N3CCOC3=O)cc2)C(=O)O1` [Example 188], 175 °C; for `COC(=S)NC[C@H]1CN(c2ccc(N3CC(=O)N(Cc4ccc(OC)cc4)C3)c(F)c2)C(=O)O1` [Example 153], 158 °C.
The compound `O=C1OCCN1c1ccc(N2C[C@H](CNC(=S)OCC(F)(F)F)OC2=O)cc1` [Example 134] yielded a melting point of 181 °C.
For `CCOC(=O)C(=O)NC[C@H]1CN(c2ccc(N3CCOC3=O)c(F)c2)C(=O)O1` [Example 73] the value was 160 °C; for `CNC(=S)NC[C@H]1CN(c2cc(F)c(N3CCOC3=O)c(F)c2)C(=O)O1` [Example 195], 113 °C.
For `CCOC(=S)NC[C@H]1CN(c2ccc(-n3c(=O)oc4ccccc43)cc2)C(=O)O1` [Example 140] the value was 147 °C; for `COC(=S)NC[C@H]1CN(c2ccc(N3CCOC3=O)c(C(F)(F)F)c2)C(=O)O1` [Example 128], 146 °C; for `CCOC(=S)NC[C@H]1CN(c2ccc(N3CCN(C)C3=S)c(F)c2)C(=O)O1` [Example 124], 197 °C.
For `CCN(CC)C(=S)NC[C@H]1CN(c2ccc(N3CCOC3=O)cc2)C(=O)O1` [Example 183] the value was 103 °C.
As to `CC(=S)NC[C@H]1CN(c2ccc(N3CCOC3=O)c(C(F)(F)F)c2)C(=O)O1` [Example 102], the melting point stood at 154 °C.
As to `COC(=S)NC[C@H]1CN(c2ccc(N3CCN(C)C3=O)c(F)c2)C(=O)O1` [Example 144], the melting point was 146 °C.
`NC(=S)NC[C@H]1CN(c2ccc(N3CCOC3=O)c(F)c2)C(=O)O1` [Example 192] showed a melting point of 178 °C.
On to `C=CCNC(=S)NC[C@H]1CN(c2ccc(N3CCOC3=O)cc2)C(=O)O1` [Example 184], for which the melting point came to 171 °C.
For `COC(=S)NC[C@H]1CN(c2ccc(N3CC(=O)N(CO)C3)cc2)C(=O)O1` [Example 157] the value was 202 to 208 °C; for `CCCCCCC(=O)NC[C@H]1CN(c2ccc(N3CCOC3=O)c(F)c2)C(=O)O1` [Example 70], 131 °C; for `CCOC(=S)NC[C@H]1CN(c2ccc(N3CCN(Cc4ccccc4)C3=O)cc2)C(=O)O1` [Example 146], 160 °C.
For `O=C1OCCN1c1ccc(N2C[C@H](CNC(=S)N3CCSCC3)OC2=O)cc1` [Example 190] the value was 159 °C.
Consider `O=C1O[C@@H](CNC(=O)C(F)(F)F)CN1c1ccc(N2CCOC2=O)c(F)c1` [Example 72], for which the melting point worked out at 194 °C.
With `O=C1OCCN1c1ccc(N2C[C@H](CNC(=S)NCc3ccccc3)OC2=O)cc1` [Example 185], the melting point is 181 °C.
For `CC(=S)NC[C@H]1CN(c2cc(F)c(N3CCOC3=O)c(F)c2)C(=O)O1` [Example 103] the value was 108 °C; for `CC(C)OC(=S)NC[C@H]1CN(c2ccc(N3CC(=O)N(Cc4ccccc4)C3)c(F)c2)C(=O)O1` [Example 154], 192 °C.
For `CC(C)OC(=S)NC[C@H]1CN(c2ccc(N3CCN(C)C3=S)c(F)c2)C(=O)O1` [Example 127] the value was 183 °C.
For `COC(=O)NC[C@H]1CN(c2ccc(N3CC(=O)N(C)C3)c(F)c2)C(=O)O1` [Example 113] the value was 226 °C; for `CC(=O)NC[C@H]1CN(c2ccc(N3CCN(C)C3=O)c(F)c2)C(=O)O1` [Example 92], 182 °C; for `CN(C)CCOC(=S)NC[C@H]1CN(c2ccc(N3CCOC3=O)cc2)C(=O)O1` [Example 152], 161 °C.
In turn, `CC(=O)NC[C@H]1CN(c2ccc(N3CCOC3=O)cc2F)C(=O)O1` [Example 85] registered a melting point of 120 °C.
Take `CC(=O)NC[C@H]1CN(c2ccc(-n3c(=O)oc4cc(C)ccc43)c(F)c2)C(=O)O1` [Example 79]: the melting point turned out to be 213 °C.
Consider `O=C1OCCN1c1ccc(N2C[C@H](CNC(=S)NCCO)OC2=O)cc1` [Example 189], for which the melting point stood at 161 °C.
For `CCCCN1CN(c2ccc(N3C[C@H](CNC(=S)OC)OC3=O)cc2F)CC1=O` [Example 160] the value was 122 °C; for `COC(=S)NC[C@H]1CN(c2ccc(N3CCOC3=O)cc2)C(=O)O1` [Example 131], 153 °C.
For `COC(=S)NC[C@H]1CN(c2ccc(N3CCN(C)C3=O)cc2)C(=O)O1` [Example 142] the value was 209 °C.
